Earlier results, collected in patent publication US20210215697A1, “Serum Biomarkers” (BerGenBio ASA, priority 2018, published 2021).
pIC50: −log10 of the molar value.

Assays:
OCI-AML5 cells = details: Ben-Batalla et al, 2013

Structure (SMILES) | IC50 to Axl inhibitors (in words) (Kasumi cell line; Ben-Batalla et al, 2013) | IC50 to Axl inhibitors (in words) (MOLM13 cell line; MOLM13, Ben-Batalla et al, 2013) | IC50 to Axl inhibitors (in words) (OCI-M1 cell line; OCI-M1, Ben-Batalla et al, 2013) | IC50 to Axl inhibitors (in words) (Mv4-11 cell line; Mv4-11, Ben-Batalla et al, 2013) | IC50 to Axl inhibitors (in words) (OCI-AML5 cells) | pIC50 (Kasumi cell line; "non-responder" AML cell line) | pIC50 (MOLM13 cell line; MOLM13, "responder" AML cell line) | pIC50 (OCI-M1 cell line; OCI-M1, "non-responder" AML cell line) | pIC50 (Mv4-11 cell line; Mv4-11, "responder" AML cell line)
Nc1nc(Nc2ccc3c(c2)CC[C@@H](N2CCCC2)CC3)nn1-c1cc2c(nn1)-c1ccccc1CCC2 [BGB324, 1-(6,7-dihydro-5H-benzo[6,7]cyclohepta[1,2-c]pyridazin-3-yl)-N3-((7-(S)-pyrrolidin-1-yl)-6,7,8,9-tetrahydro-5H-benzo[7]annulene-2-yl)-1H-1,2,4-triazole-3,5-diamine] | high | low | high | low | high |  |  |  | 
Nc1nc(Nc2ccc3c(c2)CC[C@@H](N2CCCC2)CC3)nn1-c1cc2c(nn1)-c1ccccc1CCC2 [BGB324/R428/bemcentinib, bemcentinib] |  |  |  |  |  | 5.92 | 6.35 | 5.74 | 6.85
